Data taken from patent US20260297083A1, “SUBSTITUTED ACETYLENE COMPOUND DERIVATIVES AND THEIR PHARMACEUTICAL USE” (AVELOS THERAPEUTICS INC., priority 2023, published 2026).

Biological target: T1, Polθ polymerase domain (amino acids 1792-2590) (Homo sapiens, UniProt O75417)
T1 construct: 10×Histidine-SUMO (N, cleaved yes); made in house; host or cells: E. coli
T1 sequence (O75417 1792-2590): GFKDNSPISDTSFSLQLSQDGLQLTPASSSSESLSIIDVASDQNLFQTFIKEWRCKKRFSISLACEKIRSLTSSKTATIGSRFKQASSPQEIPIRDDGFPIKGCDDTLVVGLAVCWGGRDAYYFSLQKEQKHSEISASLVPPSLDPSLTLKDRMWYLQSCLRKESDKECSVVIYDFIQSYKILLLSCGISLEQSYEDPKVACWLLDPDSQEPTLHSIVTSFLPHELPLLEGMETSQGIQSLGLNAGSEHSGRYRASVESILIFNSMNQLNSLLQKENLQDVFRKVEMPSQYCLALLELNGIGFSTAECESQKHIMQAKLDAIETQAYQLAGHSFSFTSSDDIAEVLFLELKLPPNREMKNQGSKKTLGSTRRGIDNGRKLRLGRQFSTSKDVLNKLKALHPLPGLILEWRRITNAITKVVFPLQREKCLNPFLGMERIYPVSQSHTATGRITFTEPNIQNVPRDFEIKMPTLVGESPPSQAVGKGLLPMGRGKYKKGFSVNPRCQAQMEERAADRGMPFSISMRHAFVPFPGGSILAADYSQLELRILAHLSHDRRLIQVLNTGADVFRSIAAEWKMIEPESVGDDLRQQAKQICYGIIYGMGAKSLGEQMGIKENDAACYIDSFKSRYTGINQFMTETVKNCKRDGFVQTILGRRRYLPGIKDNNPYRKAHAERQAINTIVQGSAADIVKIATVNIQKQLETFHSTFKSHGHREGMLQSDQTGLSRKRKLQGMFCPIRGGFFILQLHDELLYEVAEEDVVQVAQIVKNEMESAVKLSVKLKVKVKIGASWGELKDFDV
Assay: Picogreen assay of Polθ polymerase activity
Format: biochemical
Conditions: 12-point concentration response, 90 minutes incubation at room temperature, 8 nM Polθ in 2×polymerase mixture, read-out: PolQ IC50
Method in brief: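 E. coli-expressed polymerase domain with His-SUMO tag removed; 2× enzyme mix (8 nM) combined with 2× substrate mix (100 nM annealed primer/template DNA, 40 uM dNTPs). Buffer 25 mM Tris-HCl pH 7.5, 12.5 mM NaCl, 0.5 mM MgCl2, 1 mM DTT. Reaction 90 min at room temperature, then EDTA/Picogreen stain read at 485/520 nm; 12-point IC50.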

Row | SMILES | IC50 [nM]
1 | Cc1cc(C(F)(F)F)cc(N2[C@H](C(=O)N(CC#Cc3ncnc(N4CCOCC4)n3)c3ccc(F)c(C)c3)CCS2(=O)=O)n1 [compound 103] | > 101
2 | Cc1cc(C(F)(F)F)cc(N2[C@H](C(=O)N(CC#Cc3ccc(C(N)=O)nc3)c3ccc(F)c(C)c3)CCS2(=O)=O)n1 [compound 95] | 1 to 50
3 | Cc1cc(C(F)(F)F)cc(N2[C@H](C(=O)N(CC#Cc3cnc4c(c3)CN(C)C4=O)c3ccc(F)c(C)c3)CCS2(=O)=O)n1 [compound 98] | 1 to 50
4 | Cc1cc(C(F)(F)F)cc(N2[C@H](C(=O)N(CC#Cc3cnc(N4C[C@H](C)N(C(C)C)[C@@H](C)C4)cn3)c3ccc(F)c(C)c3)CCS2(=O)=O)n1 (stereo in doubt) [compound 54] | > 101
5 | Cc1cc(C(F)(F)F)cc(N2[C@H](C(=O)N(CC#Cc3cnc(N4C[C@H](C)N(C(C)C)[C@@H](C)C4)cn3)c3ccc(F)c(C)c3)CCS2(=O)=O)n1 [compound 53] | 1 to 50
6 | Cc1cc(C(F)(F)F)cc(N2C(=O)CC[C@H]2C(=O)N(CC#Cc2ccc(N)nn2)c2ccc(F)c(C)c2F)n1 [compound 2] | 1 to 50
7 | Cc1cccc(N(CC#Cc2ccc(N)nn2)C(=O)[C@@H]2CN(C)S(=O)(=O)N2c2cc(C(F)(F)F)cc(C)n2)c1 [compound 107] | 1 to 50
8 | Cc1cc(C(F)(F)F)cc(N2[C@H](C(=O)N(CC#Cc3cnc(C(=O)N(C)C)cn3)c3ccc(F)c(C)c3)CCS2(=O)=O)n1 [compound 68] | 1 to 50
9 | Cc1cc(C(F)(F)F)cc(N2C(=O)CC[C@H]2C(=O)N(CC#Cc2ccc(N)nn2)c2ccc(F)c(C)c2)n1 [compound 5] | 1 to 50
10 | CC(=O)Nc1cnc(C#CCN(C(=O)[C@@H]2CCS(=O)(=O)N2c2cc(C(F)(F)F)cc(C)n2)c2ccc(F)c(C)c2)cn1 [compound 34] | 1 to 50
11 | Cc1cc(C(F)(F)F)cc(N2[C@H](C(=O)N(CC#Cc3cnc(N4CCOCC4)c(C)n3)c3ccc(F)c(C)c3)CCS2(=O)=O)n1 [compound 45] | 1 to 50
12 | Cc1cc(C(F)(F)F)cc(N2[C@H](C(=O)N(CC#Cc3cnc(C(N)=O)nc3)c3ccc(F)c(C)c3)CCS2(=O)=O)n1 [compound 78] | 1 to 50
13 | Cc1cc(C(F)(F)F)cc(N2C(=O)CC[C@H]2C(=O)N(CC#Cc2ccc(C(N)=O)nc2)c2ccc(F)c(C)c2)n1 [compound 12] | > 101
14 | Cc1cc(C(F)(F)F)cc(N2[C@H](C(=O)N(CC#Cc3ncc(N4CCOCC4)cn3)c3ccc(F)c(C)c3)CCS2(=O)=O)n1 [compound 79] | 1 to 50
15 | Cc1cc(C(F)(F)F)cc(N2[C@H](C(=O)N(CC#Cc3cnc(-c4ncon4)cn3)c3ccc(F)c(C)c3)CCS2(=O)=O)n1 [compound 58] | > 101
16 | Cc1cc(C(F)(F)F)cc(N2[C@H](C(=O)N(CC#Cc3ccc(C(N)=O)nc3)C(C)(C)c3ccc(F)c(C)c3)CCS2(=O)=O)n1 [compound 112] | > 101
17 | Cc1cc(C(F)(F)F)cc(N2[C@H](C(=O)N(CC#Cc3cc(N4CCOCC4)nc(C(F)(F)F)n3)c3ccc(F)c(C)c3)CCS2(=O)=O)n1 [compound 76] | 51 to 100
18 | Cc1cc(C(F)(F)F)cc(N2[C@H](C(=O)N(CC#Cc3cnc(C(N)=O)cn3)c3ccc(F)c(C)c3)CCS2(=O)=O)n1 [compound 61] | > 101
19 | Cc1cc(C(F)(F)F)cc(N2C(=O)CC[C@H]2C(=O)N(CC#CCN2CCN(c3ncccn3)CC2)c2ccc(F)c(C)c2F)n1 [compound 16] | 1 to 50
20 | Cc1cc(C(F)(F)F)cc(N2[C@H](C(=O)N(CC#Cc3ncc(N4CCOCC4)nc3N)c3ccc(F)c(C)c3)CCS2(=O)=O)n1 [compound 43] | 1 to 50

Row | SMILES | IC50 [nM]
21 | Cc1cc(N(CC#Cc2ccc(C(N)=O)nc2)C(=O)[C@@H]2CCS(=O)(=O)N2c2cc(C(F)(F)F)cc(C(F)(F)F)n2)ccc1F [compound 126] | 1 to 50
22 | Cc1cc(C(F)(F)F)cc(N2[C@H](C(=O)N(CC#Cc3cc(C)c(N)c(C)n3)c3ccc(F)c(C)c3)CCS2(=O)=O)n1 [compound 91] | 1 to 50
23 | Cc1cc(C(F)(F)F)cc(N2[C@H](C(=O)N(CC#Cc3cnc(N4CC5(COC5)C4)cn3)c3ccc(F)c(C)c3)CCS2(=O)=O)n1 [compound 38] | 1 to 50
24 | Cc1cc(C(F)(F)F)cc(N2[C@H](C(=O)N(CC#Cc3cncc(S(N)(=O)=O)n3)c3ccc(F)c(C)c3)CCS2(=O)=O)n1 [compound 66] | 51 to 100
25 | CCN1CCN(CC#CCN(C(=O)[C@@H]2CCC(=O)N2c2cc(C(F)(F)F)cc(C)n2)c2ccc(F)c(C)c2F)CC1 [compound 13] | 1 to 50
26 | CC(=O)Nc1ccc(C#CCN(C(=O)[C@@H]2CCS(=O)(=O)N2c2cc(C(F)(F)F)cc(C)n2)c2ccc(F)c(C)c2)nn1 [compound 22] | 1 to 50
27 | Cc1cc(C(F)(F)F)cc(N2[C@H](C(=O)N(CC#Cc3cnc(C(=O)O)cn3)c3ccc(F)c(C)c3)CCS2(=O)=O)n1 [compound 60] | 1 to 50
28 | Cc1cc(C(F)(F)F)cc(N2[C@H](C(=O)N(CC#Cc3ccc(Cc4cccc5c(=O)[nH]cnc45)nc3)c3ccc(F)c(C)c3)CCS2(=O)=O)n1 [compound 135] | 1 to 50
29 | Cc1cc(C(F)(F)F)cc(N2C(=O)CC[C@H]2C(=O)N(CC#Cc2cnc(N3CCOCC3)cn2)c2ccc(F)c(C)c2)n1 [compound 10] | 1 to 50
30 | Cc1cc(C(F)(F)F)cc(N2[C@H](C(=O)N(CC#Cc3cncc(C(=O)N4CC5CCC(C4)O5)n3)c3ccc(F)c(C)c3)CCS2(=O)=O)n1 [compound 71] | 1 to 50
31 | C=CC(=O)Nc1ccncc1C#CCN(C(=O)[C@@H]1CCS(=O)(=O)N1c1cc(C(F)(F)F)cc(C)n1)c1ccc(F)c(C)c1 [compound 143, (S)-N-(3-(4-acrylamidopyridin-3-yl)prop-2-yn-1-yl)-N-(4-fluoro-3-methylphenyl)-2-(6-methyl-4-(trifluoromethyl)pyridin-2-yl)isothiazolidine-3-carboxamide 1,1-dioxide] | 51 to 100
32 | Cc1cc(C(F)(F)F)cc(N2[C@H](C(=O)N(CC#Cc3ncc(C(N)=O)nn3)c3ccc(F)c(C)c3)CCS2(=O)=O)n1 [compound 124] | 1 to 50
33 | Cc1cc(C(F)(F)F)cc(N2[C@H](C(=O)N(CC#Cc3ccc(Cc4ncc(C(N)=O)cn4)nc3)c3ccc(F)c(C)c3)CCS2(=O)=O)n1 [compound 132] | 1 to 50
34 | Cc1cc(C(F)(F)F)cc(N2[C@H](C(=O)N(CC#Cc3cnc(S(N)(=O)=O)cn3)c3ccc(F)c(C)c3)CCS2(=O)=O)n1 [compound 65] | > 101
35 | C=CC(=O)Nc1ccc(C#CCN(C(=O)[C@@H]2CCS(=O)(=O)N2c2cc(C(F)(F)F)cc(C)n2)c2ccc(F)c(C)c2)cn1 [compound 141, (S)-N-(3-(6-acrylamidopyridin-3-yl)prop-2-yn-1-yl)-N-(4-fluoro-3-methylphenyl)-2-(6-methyl-4-(trifluoromethyl)pyridin-2-yl)isothiazolidine-3-carboxamide 1,1-dioxide] | 1 to 50
36 | Cc1cccc(N(CC#Cc2ccc(N)nn2)C(=O)[C@@H]2CCC(=O)N2c2cc(C(F)(F)F)cc(C)n2)c1 [compound 1] | 1 to 50
37 | Cc1cc(C(F)(F)F)cc(N2[C@H](C(=O)N(CC#Cc3cncc(C(=O)N4CCNCC4)n3)c3ccc(F)c(C)c3)CCS2(=O)=O)n1 [compound 72] | 1 to 50
38 | Cc1cc(C(F)(F)F)cc(N2[C@H](C(=O)N(CC#Cc3ccc(C(N)=O)cn3)c3ccc(F)c(C)c3)CCS2(=O)=O)n1 [compound 97] | 1 to 50
39 | Cc1cc(C(F)(F)F)cc(N2[C@H](C(=O)N(CC#Cc3ccc(Cn4cc5cccc(C(N)=O)c5n4)nc3)c3ccc(F)c(C)c3)CCS2(=O)=O)n1 [compound 136] | 1 to 50
